PMC8406801, “Naringenin Inhibits Platelet Activation and Arterial Thrombosis Through Inhibition of Phosphoinositide 3-Kinase and Cyclic Nucleotide Signaling” (Frontiers in Pharmacology, 2021)
“And” between values parts separate entries of the source, which are not always exact repeats. Equal entries are not always repeated.

How the values were obtained:
washed rat platelets = assay: ADP (10 μM)-induced aggregation of washed rat platelets; format: cell-based; conditions: H89+Naringenin (200 μM)+ADP (10 μM); Figure 7E
[1] = tested on: integrin αIIbβ3 inside-out signaling (fibrinogen binding) in washed platelets; assay: ADP-stimulated fibrinogen binding (flow cytometry); format: cell-based, rat; conditions: ADP 10 μM; for Fibrinogen binding (%): single replicates; for fibrinogen binding: mean ± SD, n = 3, 55.67 ± 9.62% with ADP alone
Protocol: Flow cytometric assays were performed as described previously ([Wang et al., 2019]). ADP-stimulated P-selectin exposure and fibrinogen binding were determined in washed platelets. […] The platelets were immediately incubated with PE-labeled CD62P or FITC-labeled fibrinogen in the dark at room temperature for 15 min. The cells were finally fixed with 1% (v/v) paraformaldehyde prior to analysis using an Accuri C6 flow cytometer (BD Biosciences, United States).

[2] = tested on: intracellular calcium in washed platelets; assay: Calcium mobilization in ADP-induced platelets (Fluo 3-AM, flow cytometry); format: cell-based, rat; conditions: for Calcium mobilisation (%): ADP 10 μM, single replicates
Protocol: Calcium mobilization in ADP-induced platelets was measured using flow cytometry. Washed platelets were incubated with Fluo 3-AM (5 μM) at 37°C for 30 min and washed. The Fluo 3-loaded platelets were preincubated with vehicle or different concentrations of naringenin at 37°C for 5 min in the presence of 1 mM CaCl2 and then stimulated with ADP (10 μM) for 5 min. The fluorescence intensity was analyzed using an Accuri C6 flow cytometer.

PRP of treated rats = assay: Ex vivo ADP (5 μM)-induced platelet aggregation after oral dosing; format: in vivo, rat; conditions: for Aggregation (%): ex vivo, Figure 8A; for ADP-induced platelet aggregation ex vivo: rats, ADP 5 μM, mean ± SD, n = 6, vehicle 63.2 ± 3.6
Protocol: Male SD rats were randomly divided into 5 groups with 6 rats in each group. […] Sixty minutes after the last sample treatment, blood was drawn from the abdominal aorta of rats into the siliconized vacutainers containing 1:9 (v/v) 3.8% sodium citrate. The collected blood was centrifuged at 100 × g for 10 min at room temperature to obtain PRP. […] The platelet counts of PRP were adjusted to 4×10^8 cells/mL using PPP. PRP was incubated for 5 min at 37°C and then stimulated by ADP (5 μM). The maximum platelet aggregation rate was determined as mentioned above.

[3] = tested on: washed platelets on fibrinogen-coated coverslips; assay: Platelet spreading on fibrinogen; format: cell-based, rat; conditions: for surface coverage, platelet spreading on fibrinogen: mean ± SD, n = 3, vehicle 30.37 ± 3.31%; for Area (%) of platelets spread on fibrinogen: single replicates
Protocol: Washed platelets were incubated with vehicle or various concentrations of naringenin at 37°C for 10 min in the presence of 2 mM CaCl2 and allowed to spread on fibrinogen-coated coverslips for 45 min at 37°C ([Liu et al., 2016]). After washed three times with phosphate-buffered saline (PBS), adherent platelets were fixed with 4% paraformaldehyde, permeabilized with 0.1% Triton X-100 and stained with TRITC-conjugated phalloidin (1 μg/ml) in the dark at room temperature for 60 min. Adherent platelets were observed under an inverted fluorescence microscope (Nikon TE-2000S) and processed using Image J software.

cAMP = assay: Measurement of cAMP in washed platelets (ELISA); format: cell-based, rat; conditions: single replicates
Protocol: Washed platelets were preincubated with vehicle or various concentrations of naringenin in the presence of 2 mM CaCl2 at 37°C for 5 min and then stimulated with ADP (10 μM) for 5 min for platelet aggregation. The reaction was terminated by adding EDTA (10 mM). The platelets were boiled for 5 min at 100 °C followed by centrifugation at 13,000 × g for 5 min cAMP and cGMP levels in the supernatant were measured using cAMP or cGMP enzyme immunoassay kits (Cayman Chemicals, Ann Arbor, MI, United States).
FIGURE 6 Naringenin elevates platelet cGMP levels and inhibits phosphodiesterase activity. The levels of cAMP (A) and cGMP (B) in washed platelets preincubated with vehicle or naringenin (100, 200, 400, and 800 μmol/L) were determined after stimulation with ADP (10 μmol/L) using ELISA kits. Similarly, the levels of cAMP (C) and cGMP (D) were determined in resting platelets incubated with naringenin (200, 400, and 800 μmol/L) or vehicle for 5 min. R represents the levels of cAMP or cGMP in resting platelets. Data are expressed as means ± SD (n = 4). *p < 0.05, ***p < 0.001 compared with the vehicle control group. The effects of naringenin on phosphodiesterase activity were measured by HPLC on the hydrolysis of cAMP (E) and cGMP (F). The level of phosphodiesterase activity obtained with vehicle control (0 μM) was taken as 100%. Data are expressed as means ± SD (n = 3). *p < 0.05, ***p < 0.001 compared with the vehicle control group.

## O=C1C[C@@H](c2ccc(O)cc2)Oc2cc(O)cc(O)c21 [Naringenin]
Washed rat platelets
  Aggregation (%): 25.0% and 17.3% and 32.6% and 33.0% and 28.0% and 21.0%
[1]; 200 μM
  Fibrinogen binding (%): 42.78% and 35.40% and 54.20%
[1]; 400 μM
  fibrinogen binding: 31.74 ± 5.85%
  Fibrinogen binding (%): 31.71% and 25.90% and 37.60%
[1]; 800 μM
  fibrinogen binding: 20.48 ± 4.63%
  Fibrinogen binding (%): 21.04% and 15.60% and 24.80%
[2]; 400 and 800 μM
  mobilization of intracellular calcium induced by ADP: significantly prevented
[2]; 200 μM
  Calcium mobilisation (%): 46.06% and 50.52% and 43.09%
[2]; 400 μM
  Calcium mobilisation (%): 35.32% and 30.53% and 43.33%
[2]; 800 μM
  Calcium mobilisation (%): 34.54% and 21.04% and 26.06%
PRP of treated rats; naringenin 200mg/kg
  Aggregation (%): 44.3% and 43.6% and 49.2% and 46.7% and 39.1% and 43%
PRP of treated rats; naringenin 400mg/kg
  Aggregation (%): 34.4% and 37.3% and 35.4% and 28% and 25.8% and 22.9%
PRP of treated rats; naringenin 800mg/kg
  Aggregation (%): 12.7% and 17.8% and 16.5% and 21.5% and 19.3% and 11.6%
PRP of treated rats; oral 200 mg/kg once a day for 7 days
  ADP-induced platelet aggregation ex vivo: 44.3 ± 3.4%
PRP of treated rats; oral 400 mg/kg once a day for 7 days
  ADP-induced platelet aggregation ex vivo: 30.6 ± 5.9%
PRP of treated rats; oral 800 mg/kg once a day for 7 days
  ADP-induced platelet aggregation ex vivo: 16.6 ± 3.8%
[3]; 100 μM
  surface coverage, platelet spreading on fibrinogen: 20.96 ± 5.08%
  Area (%) of platelets spread on fibrinogen: 25.76% and 15.64% and 21.47%
[3]; 200 μM
  surface coverage, platelet spreading on fibrinogen: 15.29 ± 1.87%
  Area (%) of platelets spread on fibrinogen: 16.88% and 15.75% and 13.23%
[3]; 400 μM
  surface coverage, platelet spreading on fibrinogen: 10.56 ± 0.79%
  Area (%) of platelets spread on fibrinogen: 9.69% and 11.23% and 10.75%
[3]; 800 μM
  surface coverage, platelet spreading on fibrinogen: 6.98 ± 2.74%
  Area (%) of platelets spread on fibrinogen: 4.62% and 6.33% and 9.98%
cAMP; ADP 10 μmol/L-stimulated platelets, 100 μM
  cAMP release: 21.36 pmol/mL and 22.41 pmol/mL and 21.09 pmol/mL and 22.01 pmol/mL
cAMP; ADP 10 μmol/L-stimulated platelets, 200 μM
  cAMP release: 21.75 pmol/mL and 22.14 pmol/mL and 22.01 pmol/mL and 23.59 pmol/mL
cAMP; ADP 10 μmol/L-stimulated platelets, 400 μM
  cAMP release: 27.54 pmol/mL and 26.36 pmol/mL and 22.01 pmol/mL and 20.04 pmol/mL
cAMP; ADP 10 μmol/L-stimulated platelets, 800 μM
  cAMP release: 22.54 pmol/mL and 21.62 pmol/mL and 23.20 pmol/mL and 26.75 pmol/mL
cAMP; resting platelets, 200 μM, 5 min
  cAMP release: 19.51 pmol/mL and 23.07 pmol/mL and 21.88 pmol/mL and 25.17 pmol/mL
cAMP; resting platelets, 400 μM, 5 min
  cAMP release: 23.59 pmol/mL and 22.67 pmol/mL and 21.88 pmol/mL and 20.96 pmol/mL
cAMP; resting platelets, 800 μM, 5 min
  cAMP release: 19.64 pmol/mL and 23.59 pmol/mL and 22.67 pmol/mL and 22.14 pmol/mL
